Laboratory results from publication PMC11539218 (Antimicrobial Agents and Chemotherapy, 2024).

Experiments:
[1] = tested on: L. (L.) infantum promastigotes; test: Mitochondrial membrane electric potential (JC-1, flow cytometry); format: cell-based, Leishmania (L.) infantum; settings: compound 1 169.2 µM, CCCP 10 µM; 2 and 4 h; JC-1 BL-2/BL-1 ratio; vs untreated
Protocol: Promastigotes (2 × 10^6/well) were treated with compound 1 (169.2 µM) for 2 and 4 h, at 24°C. Then, JC-1 (10 µM) was added and the parasites were incubated for 20 min. Fluorescence was measured in a flow cytometer with an excitation wavelength of 488 nm and emission of 530 (BL-1) and 574 nm (BL-2). Mitochondrial membrane potential was established through the ratio of BL-2/BL-1 channels ([19]). Carbonyl cyanide m-chlorophenylhydrazone (CCCP) (10 µM) was employed as positive control and untreated parasites as negative control.

[2] = tested on: L. (L.) infantum promastigotes; test: DNA content / integrity (agarose gel electrophoresis); format: cell-based, Leishmania (L.) infantum; settings: compound 1 169.2 µM, H2O2 10 mM; 24 h; 2% agarose gel
Protocol: Promastigotes (1 × 10^7/well) were treated with compound 1 (169.2 μM) in M199 medium supplemented with 10% FBS and 0.25% hemin, pH 7.2, for 24 h at 24°C. Then, the genetic material was extracted using the QIAamp DNA Mini Kit, according to the manufacturer’s instructions. Total DNA quantification was performed in a NanoDrop ND-1000 spectrophotometer (260/280 nm). The purified genetic material (300 ng) was analyzed by electrophoresis for 1 h at […] in a 2% agarose gel with ethidium bromide (0.5 µg/mL). Visualization was performed under UV light in a MiniBIS Pro transilluminator (DNR Bio Imaging System) ([21]). H2O2 (10 mM) was employed as positive control and untreated parasites as negative control ([26]).

[3] = tested on: L. (L.) infantum promastigotes; test: Cell cycle (propidium iodide, flow cytometry); format: cell-based, Leishmania (L.) infantum; settings: 24 h; compound 1 169.2 µM, miltefosine 25 µM
Protocol: Promastigotes (2 × 10^6/well) in exponential phase, were treated with compound 1 (169.2 µM) in M199 medium supplemented with 10% FBS and 0.25% hemin, pH 7.2, for 24 h at 24°C. In sequence, 70% (vol/vol) ice-cold ethanol was used for cell permeabilization overnight at −20°C. Then, the parasites were incubated with propidium iodide (10 µg/mL) and RNase A (20 µg/mL) for 30 min. […] Miltefosine (25 µM) was employed as positive control and untreated parasites as negative control ([25]).

[4] = set-up: method as in PMID 34695563; settings: plasma half-life; cited from earlier work
[5] = tested on: L. (L.) donovani; set-up: method as in PMID 29061745; settings: with subsequent increase in Ca2+ and collapse of mitochondrial membrane potential; cited from earlier work
[6] = tested on: L. (L.) infantum promastigotes; format: cell-based, Leishmania (L.) infantum; settings: compound 1 169.2 µM, sodium azide 10 mM; 2 and 4 h; H2DCFDA; vs untreated
Protocol: Promastigotes (2 × 10^6/well) were treated with compound 1 (169.2 µM) for 2 and 4 h, at 24°C. Later, H2DCFDA (5 µM) was added and the parasites were incubated for 15 min. Fluorescence was monitored in a spectrofluorometer with excitation and emission wavelengths of 485 and 535 nm, respectively ([19]). Sodium azide (10 mM) was employed as positive control and untreated parasites as negative control.

[7] = tested on: L. (L.) infantum promastigotes; test: Plasma membrane permeability (Sytox Green); format: cell-based, Leishmania (L.) infantum; settings: compound 1 169.2 µM, Triton X-100 0.5%, up to 4 h
Protocol: Promastigotes (2 × 10^6/well) were pretreated with Sytox Green (1 µM) for 15 min, at 24°C. Then, compound 1 (169.2 µM) was added and the fluorescence was monitored every 20 min up to 4 h in a spectrofluorometer, with excitation and emission wavelengths of 485 and 535 nm, respectively ([17]). Triton X-100 (0.5% vol/vol) was employed as positive control and untreated parasites as negative control ([18]).

[8] = tested on: Peritoneal macrophages infected with L. (L.) infantum; test: Cytokines in infected macrophages (ELISA); format: cell-based, BALB/c mice; settings: positive control 5 µg/mL
Protocol: L. (L.) infantum (MHOM/BR/1972/LD) promastigotes were maintained in M199 medium supplemented with 10% FBS and 0.25% hemin, pH 7.2 at 24°C. Amastigotes were isolated from golden hamsters (M. auratus) by differential centrifugation of infected spleens and the parasite’s number was determined according to Stauber ([14]). Peritoneal macrophages were obtained from the peritoneal cavity of BALB/c mice and maintained in RPMI-1640 medium supplemented with 10% FBS, pH 7.2 at 37°C.
Peritoneal macrophages (1 × 10^6/well) were infected with L. (L.) infantum […] (10:1 amastigotes/macrophage) for 24 h, at 37°C with 5% CO2. Subsequently, compound 1 (10 and 60 µM) was added and the incubation followed the same conditions described above. Cell supernatants were collected after 48 and 72 h and the cytokines (IL-4, IL-10, IL-12, and INF-γ) were measured using the BD OptEIA Mouse ELISA set kits, according to the manufacturer’s instructions. Concanavalin A (5 µg/mL) was employed as positive control and untreated cells as negative control.

In the case of `N#CC(C#N)=NNc1cccc(Cl)c1` [CCCP, Carbonyl cyanide m-chlorophenylhydrazone, reference compound], the “mitochondrial membrane electric potential (ΔΨm)” value [1] was “Maximum depolarization”.
With `OO` [H2O2, reference compound] the “integrity of the genetic content (DNA)” value [2] was “DNA fragmentation”.
In the case of `CCCCCCCCCCCCCCCCOP(=O)([O-])OCC[N+](C)(C)C` [Miltefosine, reference compound], the “Proportion of parasites in different phases of the cell cycle (% ± SD): G0/G1” value [3] was 53.8 ± 0.1 %, the “Proportion of parasites in different phases of the cell cycle (% ± SD): M/G2” value [3] was 18.1 ± 0.4% and the “Proportion of parasites in different phases of the cell cycle (% ± SD): S” value [3] was 10.5 ± 0.3%. The “Proportion of parasites in different phases of the cell cycle (% ± SD): Sub G0” value [3] was 7.1 ± 0.6 %, the T1/2 [4] was “approximately 126 h” and the effect on acidocalcisomes [5] was “alkalinization of acidocalcisomes”.
With `[N-]=[N+]=[N-].[Na+]` [sodium azide, Sodium azide, reference compound] the ROS levels [6] was “increased ROS production”.
For Triton X-100 [reference compound], the plasma membrane permeability [7] was “significative permeabilization”.
In the case of concanavalin A [reference compound], the “production of cytokines (IL-4, IL-10, IL-12, INF-γ)” value [8] was “tendency to increase”.
